Experimental data reported in patent publication US20240209334A1, “SMALL-MOLECULE-ACTIVATED GLYCAN MODIFYING ENZYMES AND USES THEREOF” (President and Fellows of Harvard College, priority 2022, published 2024).

How the values were obtained:
Assay type in all cases: cell-based, human
[1] = system: MCF7-C181_D174N; assay: Apoptosis, Annexin V/DAPI flow cytometry; details: 10 μM 4-HT for 24 hours
From the text: (§1) In addition to serving as an activator for intein splicing, 4-HT is also known as the active metabolite of tamoxifen, an FDA-approved drug for treating breast cancer patients. Breast cancer cells also have elevated OGT expression (39) and decreased levels of OGA (40, 41), resulting in elevated O-GlcNAcylation in the proteome. OGT is usually required for tumor growth and metastasis (39), and low OGA expression is correlated with poor survival in breast cancer patients (FIG. 13). The ER positive breast cancer-derived MCF-7 cell line is sensitive to tamoxifen and 4-HT, resulting in suppression of cell proliferation, yet drug resistance occurs after long-term treatment (42). […] To determine if reduction of O-GlcNAc sensitized MCF-7 cells to 4-HT treatment, it was assessed whether 4-HT induced inhibition of breast cancer cell proliferation and OGA-intein activation worked synergistically to accelerate cell death (FIG. 5A). […] Next, these two cell lines were treated with 4-HT at increasing concentrations, and cell viability was measured after 48 hours. […] Given that 4-HT promoted MCF-7 cell death through apoptosis (43), the apoptosis of these cells under 4-HT treatment was further analyzed through flow cytometry analyses following Annexin V and DAPI staining. […]
(§2) Detection of cell apoptosis. […] Data was analyzed by FlowJo v10.

[2] = system: MCF7-C181 cells; assay: Apoptosis, Annexin V/DAPI flow cytometry; details: 10 μM 4-HT for 24 hours
From the text: as §1, §2

[3] = system: regular MCF-7 cells; assay: Cell viability, CCK-8 assay; details: 48 hours
From the text: as §1
(§3) Cell viability assay. Cell viability was assessed by CCK-8 assay. […]

[4] = system: MCF7-C181 cells; assay: Cell viability, CCK-8 assay; details: 48 hours
From the text: as §1, §3

[5] = system: MCF7-C181_D174N cells; assay: Cell viability, CCK-8 assay; details: 48 hours
From the text: as §1, §3

For `CC/C(=C(\c1ccc(O)cc1)c1ccc(OCCN(C)C)cc1)c1ccccc1` [4-HT, 4-hydroxytamoxifen], the apoptotic cells [1] was 6.09%, the apoptotic cells [2] was 6.84% and the “4-HT concentration required for suppressing survival” value [3] was > 5 µM. For the same molecule, the “4-HT concentration giving almost complete cell survival inhibition” value [4] was 5 µM and the “4-HT concentration required for suppressing survival” value [5] was > 5 µM.
